Data taken from patent US20260250289A1, “BICYCLIC HETEROCYCLES AND THEIR USE AS WRN INHIBITORS” (Novartis AG, priority 2022, published 2026).

How the values were obtained:
[1] = target: T1, WRN helicase (aa N517-P1238) (Homo sapiens, UniProt Q14191); experiment: WRN ATPase assay (DNA dependent ATP hydrolysis, ADP-Glo); assay type: biochemical; conditions: 3 hours pre-incubation, 300 micromolar ATP, FLAP26 DNA; geometric mean of at least 2
T1 construct: The core helicase motif of the WRN protein (aa N517-P1238) was produced for this assay; His (N); ZZ (N); 3C protease cleavage site (N); made in house; host or cells: Sf21 insect cells (baculovirus; virus and BIICs made in SF9)
T1 sequence (Q14191 517-1238): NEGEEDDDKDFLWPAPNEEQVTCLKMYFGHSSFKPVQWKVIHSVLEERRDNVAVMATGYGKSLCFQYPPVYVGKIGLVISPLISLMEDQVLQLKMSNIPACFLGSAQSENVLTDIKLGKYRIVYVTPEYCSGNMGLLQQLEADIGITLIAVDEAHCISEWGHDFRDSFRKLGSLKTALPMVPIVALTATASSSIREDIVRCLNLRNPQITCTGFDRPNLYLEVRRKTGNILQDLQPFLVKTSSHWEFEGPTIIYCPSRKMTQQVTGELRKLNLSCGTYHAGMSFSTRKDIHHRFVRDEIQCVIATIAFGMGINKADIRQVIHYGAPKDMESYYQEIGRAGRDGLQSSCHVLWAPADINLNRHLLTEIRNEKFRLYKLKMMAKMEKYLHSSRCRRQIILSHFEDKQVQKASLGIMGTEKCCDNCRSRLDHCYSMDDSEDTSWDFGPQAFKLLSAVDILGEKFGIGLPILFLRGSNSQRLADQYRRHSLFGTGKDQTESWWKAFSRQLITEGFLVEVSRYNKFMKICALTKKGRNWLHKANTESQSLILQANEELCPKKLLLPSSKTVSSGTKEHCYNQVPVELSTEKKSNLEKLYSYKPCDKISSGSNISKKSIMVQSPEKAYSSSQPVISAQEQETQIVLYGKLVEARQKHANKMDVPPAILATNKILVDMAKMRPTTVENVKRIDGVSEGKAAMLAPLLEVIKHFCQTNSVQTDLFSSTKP
How it was run: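 DNA-dependent ATP hydrolysis detected as ADP by ADP-Glo luminescence, using 300 μM ATP, 0.2 nM FLAP26 substrate and 10 nM WRN aa N517-P1238 (Tris pH 7.5 buffer, 2 mM MgCl2, 50 mM NaCl). IC50s fitted from normalized duplicate half-log dilutions; reported as geometric means of at least 2 replicates.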

[2] = test system: SW48 cells; experiment: Proliferation assay SW48 (CellTiterGlo); assay type: cell-based; conditions: Homo sapiens, SW48, 96 h, SW48 colon carcinoma cells, 96 hours, CellTiterGlo; geometric mean of at least 2; read-out: Proliferation Assay SW48 GI50
How it was run: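 SW48 cells, 2,000/well, treated after overnight seeding with eight 3-fold compound dilutions (0.1% DMSO) for 96 hours at 37° C. Viability read as ATP by CellTiterGlo luminescence, normalised to a day-0 plate and vehicle to give % growth; GI50 is geometric mean of ≥2 independent replicates.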

[3] = test system: DLD1-WRN-KO cells; experiment: Proliferation assay DLD1-WRN-KO (CellTiterGlo, off-target effects); assay type: cell-based; conditions: 96 hours, geometric mean of at least 2
How it was run: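 DLD1 cells with CRISPR knockout of WRN were exposed overnight-seeded to eight 3-fold compound dilutions (0.1% DMSO) for 96 h at 37 °C. Viability was read as ATP by CellTiterGlo luminescence against a day-0 plate, giving GI50 and residual viability at top concentration.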

Row | Compound | IC50 [1] | GI50 [2] | GI50 [3]
1 | CC(=O)N1CCN(c2c(C)n(CC(=O)Nc3cc(C(F)(F)F)c(Cl)cc3C)c3nc(C4=CCOCC4)nn3c2=O)CC1 [Example 80, 2-(6-(4-acetylpiperazin-1-yl)-2-(3,6-dihydro-2H-pyran-4-yl)-5-methyl-7-oxo-[1,2,4]triazolo[1,5-a]pyrimidin-4(7H)-yl)-N-(4-chloro-2-methyl-5-(trifluoromethyl)phenyl)acetamide] | 300 nM | 800 nM | > 10000 nM
2 | COC(=O)N1CCN(c2nc3n(CC(=O)Nc4ccc(S(F)(F)(F)(F)F)cc4)c(C)c(N4CCN(C(C)=O)CC4)c(=O)n3n2)CC1 [Example 81, methyl 4-(6-(4-acetylpiperazin-1-yl)-5-methyl-7-oxo-4-(2-oxo-2-((4-(pentafluoro-l6-sulfaneyl)phenyl)amino)ethyl)-4,7-dihydro-[1,2,4]triazolo[1,5-a]pyrimidin-2-yl)piperazine-1-carboxylate] | 300 nM | 4000 nM | > 10000 nM
3 | [2H]C([2H])(C(=O)Nc1ccc(C(F)(F)F)cc1)n1c(CC)c(N2CCN(C(C)=O)CC2)c(=O)n2nc(C3=CCOCC3)nc12 [Example 82, 2-(6-(4-acetylpiperazin-1-yl)-2-(3,6-dihydro-2H-pyran-4-yl)-5-ethyl-7-oxo-[1,2,4]triazolo[1,5-a]pyrimidin-4(7H)-yl)-N-(4-(trifluoromethyl)phenyl)acetamide-2,2-d2] | 300 nM | 2000 nM | > 10000 nM
4 | CC(=O)N1CCN(c2c(C)n(CC(=O)Nc3cc(F)c(C(F)(F)F)cc3C)c3nc(C4=CCOCC4)nn3c2=O)CC1 [Example 83, 2-(6-(4-acetylpiperazin-1-yl)-2-(3,6-dihydro-2H-pyran-4-yl)-5-methyl-7-oxo-[1,2,4]triazolo[1,5-a]pyrimidin-4(7H)-yl)-N-(5-fluoro-2-methyl-4-(trifluoromethyl)phenyl)acetamide] | 300 nM | 2000 nM | > 10000 nM
5 | CC(=O)N1CCN(c2c(C)n(CC(=O)Nc3ccc(C(F)(F)F)c(F)c3C)c3nc(C4=CCOCC4)nn3c2=O)CC1 [Example 84, 2-(6-(4-acetylpiperazin-1-yl)-2-(3,6-dihydro-2H-pyran-4-yl)-5-methyl-7-oxo-[1,2,4]triazolo[1,5-a]pyrimidin-4(7H)-yl)-N-(3-fluoro-2-methyl-4-(trifluoromethyl)phenyl)acetamide] | 300 nM | 1000 nM | > 10000 nM
6 | CC(=O)N1CCN(c2c(C)n(CC(=O)Nc3cc(Cl)c(C(F)(F)F)nc3C)c3nc(C4=CCOCC4)nn3c2=O)CC1 [Example 87, 2-(6-(4-acetylpiperazin-1-yl)-2-(3,6-dihydro-2H-pyran-4-yl)-5-methyl-7-oxo-[1,2,4]triazolo[1,5-a]pyrimidin-4(7H)-yl)-N-(5-chloro-2-methyl-6-(trifluoromethyl)pyridin-3-yl)acetamide] | 500 nM | 4000 nM | > 10000 nM
7 | CCc1c(N2CCN(C(C)=O)CC2)c(=O)n2nc(C3=CCOCC3)nc2n1CC(=O)Nc1ccc(C(F)(F)F)cc1F [Example 88, 2-(6-(4-acetylpiperazin-1-yl)-2-(3,6-dihydro-2H-pyran-4-yl)-5-ethyl-7-oxo-[1,2,4]triazolo[1,5-a]pyrimidin-4(7H)-yl)-N-(2-fluoro-4-(trifluoromethyl)phenyl)acetamide] | 500 nM | 3000 nM | > 10000 nM
8 | CC(=O)N1CCN(c2c(C)n(CC(=O)Nc3cc(C)c(C(F)(F)F)cc3Cl)c3nc(C4=CCOCC4)nn3c2=O)CC1 [Example 89, 2-(6-(4-acetylpiperazin-1-yl)-2-(3,6-dihydro-2H-pyran-4-yl)-5-methyl-7-oxo-[1,2,4]triazolo[1,5-a]pyrimidin-4(7H)-yl)-N-(2-chloro-5-methyl-4-(trifluoromethyl)phenyl)acetamide] | 600 nM | 3000 nM | > 10000 nM
9 | CC(=O)N1CCN(c2c(C)n(CC(=O)Nc3ccc(C(F)(F)F)cc3)c3nc(-c4ccc(CN(C)C(=O)OC(C)(C)C)cc4)nn3c2=O)CC1 [Example 95, tert-butyl (4-(6-(4-acetylpiperazin-1-yl)-5-methyl-7-oxo-4-(2-oxo-2-((4-(trifluoromethyl)phenyl)amino)ethyl)-4,7-dihydro-[1,2,4]triazolo[1,5-a]pyrimidin-2-yl)benzyl)(methyl)carbamate] | 800 nM | 2000 nM | > 10000 nM
10 | CC(=O)N1CCN(c2c(C)n(CC(=O)Nc3cnc(C(F)(F)F)cc3Cl)c3nc(C4=CCOCC4)nn3c2=O)CC1 [Example 99, 2-(6-(4-acetylpiperazin-1-yl)-2-(3,6-dihydro-2H-pyran-4-yl)-5-methyl-7-oxo-[1,2,4]triazolo[1,5-a]pyrimidin-4(7H)-yl)-N-(4-chloro-6-(trifluoromethyl)pyridin-3-yl)acetamide] | 2000 nM | 6000 nM | > 10000 nM

Results, then the compound that gave them:

Row | IC50 [1] | GI50 [2] | GI50 [3] | Compound
11 | 200 nM | 5000 nM | > 10000 nM | CC(=O)N1CCN(c2c(C)n(CC(=O)Nc3ccc(Cl)cc3)c3nc(C4=CCCCO4)nn3c2=O)CC1 [Example 79, 2-(6-(4-acetylpiperazin-1-yl)-2-(3,4-dihydro-2H-pyran-6-yl)-5-methyl-7-oxo-[1,2,4]triazolo[1,5-a]pyrimidin-4(7H)-yl)-N-(4-chlorophenyl)acetamide]
12 | 500 nM | 4000 nM | > 10000 nM | CC(=O)N1CCN(c2c(C)n(CC(=O)Nc3ccc(C(F)(F)F)cc3F)c3nc(C4=CCOCC4)nn3c2=O)CC1 [Example 85, 2-(6-(4-acetylpiperazin-1-yl)-2-(3,6-dihydro-2H-pyran-4-yl)-5-methyl-7-oxo-[1,2,4]triazolo[1,5-a]pyrimidin-4(7H)-yl)-N-(2-fluoro-4-(trifluoromethyl)phenyl)acetamide]
13 | 600 nM | 4000 nM | > 10000 nM | CC(=O)N1CCN(c2c(C)n(CC(=O)Nc3ccc(C(F)(F)F)c(F)c3)c3nc(C4=CCOCC4)nn3c2=O)CC1 [Example 90, 2-(6-(4-acetylpiperazin-1-yl)-2-(3,6-dihydro-2H-pyran-4-yl)-5-methyl-7-oxo-[1,2,4]triazolo[1,5-a]pyrimidin-4(7H)-yl)-N-(3-fluoro-4-(trifluoromethyl)phenyl)acetamide]
14 | 700 nM | 3000 nM | > 10000 nM | CC(=O)N1CCN(c2c(C)n(CC(=O)Nc3cc(F)c(C(F)(F)F)cc3Cl)c3nc(C4=CCOCC4)nn3c2=O)CC1 [Example 91, 2-(6-(4-acetylpiperazin-1-yl)-2-(3,6-dihydro-2H-pyran-4-yl)-5-methyl-7-oxo-[1,2,4]triazolo[1,5-a]pyrimidin-4(7H)-yl)-N-(2-chloro-5-fluoro-4-(trifluoromethyl)phenyl)acetamide]
15 | 700 nM | 4000 nM | > 10000 nM | CCc1ccc(NC(=O)Cn2c(C)c(N3CCN(C(C)=O)CC3)c(=O)n3nc(C4=CCOCC4)nc23)cc1F [Example 92, 2-(6-(4-acetylpiperazin-1-yl)-2-(3,6-dihydro-2H-pyran-4-yl)-5-methyl-7-oxo-[1,2,4]triazolo[1,5-a]pyrimidin-4(7H)-yl)-N-(4-ethyl-3-fluorophenyl)acetamide]
16 | 700 nM | 3000 nM | > 10000 nM | CC(=O)N1CCN(c2c(C)n(CC(=O)Nc3cc(F)c(C(F)F)cc3C)c3nc(C4=CCOCC4)nn3c2=O)CC1 [Example 94, 2-(6-(4-acetylpiperazin-1-yl)-2-(3,6-dihydro-2H-pyran-4-yl)-5-methyl-7-oxo-[1,2,4]triazolo[1,5-a]pyrimidin-4(7H)-yl)-N-(4-(difluoromethyl)-5-fluoro-2-methylphenyl)acetamide]
17 | 800 nM | 3000 nM | > 10000 nM | CC(=O)N1CCN(c2c(C)n(CC(=O)Nc3c(C)cc(C(F)(F)F)cc3Cl)c3nc(C4=CCOCC4)nn3c2=O)CC1 [Example 96, 2-(6-(4-acetylpiperazin-1-yl)-2-(3,6-dihydro-2H-pyran-4-yl)-5-methyl-7-oxo-[1,2,4]triazolo[1,5-a]pyrimidin-4(7H)-yl)-N-(2-chloro-6-methyl-4-(trifluoromethyl)phenyl)acetamide]
18 | 1000 nM | 4000 nM | > 10000 nM | CC(=O)N1CCN(c2c(C)n(CC(=O)Nc3cc(F)c(Cl)cc3Cl)c3nc(C4=CCOCC4)nn3c2=O)CC1 [Example 97, 2-(6-(4-acetylpiperazin-1-yl)-2-(3,6-dihydro-2H-pyran-4-yl)-5-methyl-7-oxo-[1,2,4]triazolo[1,5-a]pyrimidin-4(7H)-yl)-N-(2,4-dichloro-5-fluorophenyl)acetamide]
19 | 1000 nM | 6000 nM | > 10000 nM | CC(=O)N1CCN(c2c(C)n(CC(=O)Nc3ccc(C(F)(F)F)nc3Cl)c3nc(C4=CCOCC4)nn3c2=O)CC1 [Example 98, 2-(6-(4-acetylpiperazin-1-yl)-2-(3,6-dihydro-2H-pyran-4-yl)-5-methyl-7-oxo-[1,2,4]triazolo[1,5-a]pyrimidin-4(7H)-yl)-N-(2-chloro-6-(trifluoromethyl)pyridin-3-yl)acetamide]
